IC50 and Ki data for 25 molecules are collected here from patent US12378186B2, “Inhibitors of meprin α and β” (VIVORYON THERAPEUTICS N.V., priority 2016, dated 2025).

The target in test [1] is T1, hMeprin β (Homo sapiens, UniProt Q16820).
T1 sequence (Q16820 62-701): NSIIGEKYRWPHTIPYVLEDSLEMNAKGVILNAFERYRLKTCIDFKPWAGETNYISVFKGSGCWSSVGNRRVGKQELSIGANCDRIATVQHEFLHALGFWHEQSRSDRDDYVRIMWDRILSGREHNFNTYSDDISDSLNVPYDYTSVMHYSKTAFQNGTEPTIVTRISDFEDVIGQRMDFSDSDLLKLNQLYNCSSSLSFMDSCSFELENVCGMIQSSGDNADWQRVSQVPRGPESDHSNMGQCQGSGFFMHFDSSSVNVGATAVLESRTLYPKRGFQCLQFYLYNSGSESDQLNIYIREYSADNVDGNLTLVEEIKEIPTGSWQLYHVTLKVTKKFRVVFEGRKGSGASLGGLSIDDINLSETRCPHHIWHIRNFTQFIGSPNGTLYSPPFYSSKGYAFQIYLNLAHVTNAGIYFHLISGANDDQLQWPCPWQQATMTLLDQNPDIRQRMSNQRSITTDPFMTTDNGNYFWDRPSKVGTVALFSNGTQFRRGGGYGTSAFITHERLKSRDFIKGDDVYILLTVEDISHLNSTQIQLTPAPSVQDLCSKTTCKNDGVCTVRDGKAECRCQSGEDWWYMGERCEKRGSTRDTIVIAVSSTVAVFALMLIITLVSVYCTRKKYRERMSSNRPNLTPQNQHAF
Briefly: Enzymatic assay, cleavage of internally quenched peptide substrate, hMeprin β. The test is classed as biochemical. As for the experimental part: (§1) A typical assay of 250 μl total volume measured in black 96 well plates consisted of 100 μl buffer, 50 μl enzyme at a final concentration of 5e-8 M to 5e-9 M, 50 μl substrate (0.15 to 80 μM, in buffer, 0.5% DMSO) and 50 μl inhibitor solution (in buffer, 1% DMSO). In case of 125 μl assay volume (black 96 half area well plates) all volumes were cut in half. Enzymatic activity of ADAMs was measured in 384 well plates with 60 μl total assay volume consisting of 20 μl inhibitor, 20 μl buffer, 10 μl enzyme and 10 μl substrate.
(§2) Ki values were assessed combining 4 substrate concentrations (5-40 μM) with at least 5 inhibitor concentrations. […] Initial velocities were determined and converted into concentration units applying a standard curve obtained after complete conversion of different substrate concentrations under assay conditions. All measurements were performed using a fluorescence plate reader (FLUOstar OPTIMA, BMG Labtech) at 30° C. The kinetic parameters were determined at least in duplicates on separate days. The excitation/emission wavelength was 340/420 nm. The kinetic data was evaluated using GraFit software (version 7.0.3, Erithacus Software).
(§3) The following compounds according to the present invention were synthesized using the above general procedures. IC50 refers to the average IC50 values measured as described above, SD (IC50) refers to the standard deviation of the average IC50 values, Ki refers to the average K; values measured as described above, and SD (Ki) to the standard deviation of the average Ki values.

In test [2] the target is T2, hMeprin α (Homo sapiens, UniProt Q16819).
T2 sequence (Q16819 66-746): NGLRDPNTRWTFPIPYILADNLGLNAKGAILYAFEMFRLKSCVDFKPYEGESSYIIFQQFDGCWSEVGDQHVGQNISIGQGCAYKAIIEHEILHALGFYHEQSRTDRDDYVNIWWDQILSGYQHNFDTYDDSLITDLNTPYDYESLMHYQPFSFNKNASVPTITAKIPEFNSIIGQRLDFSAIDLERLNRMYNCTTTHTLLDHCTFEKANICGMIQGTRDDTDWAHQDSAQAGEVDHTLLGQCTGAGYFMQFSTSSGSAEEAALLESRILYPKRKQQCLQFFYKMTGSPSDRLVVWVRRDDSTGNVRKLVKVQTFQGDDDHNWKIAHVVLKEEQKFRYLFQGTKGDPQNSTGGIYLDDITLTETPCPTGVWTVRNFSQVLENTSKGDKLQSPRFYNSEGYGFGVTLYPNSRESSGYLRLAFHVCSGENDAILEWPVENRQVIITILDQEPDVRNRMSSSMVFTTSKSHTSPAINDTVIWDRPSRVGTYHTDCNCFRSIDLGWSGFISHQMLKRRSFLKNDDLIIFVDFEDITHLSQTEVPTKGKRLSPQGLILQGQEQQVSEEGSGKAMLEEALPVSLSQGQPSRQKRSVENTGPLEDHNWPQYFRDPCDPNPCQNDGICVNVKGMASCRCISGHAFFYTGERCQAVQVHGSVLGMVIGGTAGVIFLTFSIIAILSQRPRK
Briefly: biochemical. The note with it: 30° C., 40 mM HEPES pH 7.4; for IC50: average IC50, 10 μM substrate, read-out: Meprin Alpha IC50; for Ki: average Ki, 4 substrate concentrations (5-40 μM), read-out: Meprin Alpha Ki. The test is classed as biochemical. The method, then:
as §1, §2, §3

The mark [3] stands for this setting: average IC50, 10 μM substrate, 30° C., 40 mM Tris pH 8.0, read-out: Meprin Beta IC50.

Like-named read-outs stand apart in the source and are kept apart here.

By IC50 is commonly meant the concentration that inhibits the measured activity by half. For `O=C(O)c1cccc(CN2CCCC2C(=O)NO)c1` (stereo in doubt) [Example 12, 3-[[(2R)-2-(Hydroxycarbamoyl)pyrrolidin-1-yl]methyl]benzoic acid], the half-maximal inhibitory concentration (IC50) in test [1] worked out at 31400 nM.

Molecule `O=C(O)c1cccc(CN2CCCC2C(=O)NO)c1` (stereo in doubt) [Example 13, 3-[[(2S)-2-(Hydroxycarbamoyl)pyrrolidin-1-yl]methyl]benzoic acid] gave an IC50 in test [1] of 41100 nM.

Usually Ki stands for the dissociation constant of the complex between target and ligand, obtained from inhibition or displacement. Consider `O=C(CN(Cc1ccc(C(=O)O)cc1)Cc1ccc(C(=O)O)cc1)NO` [Example 1, 4-[[(4-Carboxyphenyl)methyl-[2-(hydroxyamino)-2-oxo-ethyl]amino]methyl]benzoic acid], for which the IC50 in test [1] is 468 nM; in test [2] it was 85700 nM. For the same molecule, affinity in test [1] was put at a Ki of 223 nM.

For `O=C(CN(Cc1cccc(C(=O)O)c1)Cc1cccc(C(=O)O)c1)NO` [Example 2, 3-[[(3-Carboxyphenyl)methyl-[2-(hydroxyamino)-2-oxo-ethyl]amino]methyl]benzoic acid], the inhibitory constant (Ki) in test [1] came to 18 nM. Moreover, in test [2], the IC50 came out at 30900 nM and the Ki came to 10400 nM.

In test [1], `O=C(CNCc1cccc(C(=O)O)c1)NO` [Example 3, 3-[[[2-(Hydroxyamino)-2-oxo-ethyl]amino]-methyl]benzoic acid] yielded an inhibition constant (Ki) of 183 nM. Further, the IC50 in test [1] (setting [3]) came out at 377 nM.

In test [1], `O=C(CN(Cc1ccc2c(c1)OCO2)Cc1ccc2c(c1)OCO2)NO` [Example 4, 2-[bis(1,3-Benzodioxol-5-ylmethyl)amino]-ethanehydroxamic acid] showed a half-inhibitory concentration (IC50) of 5360 nM and an inhibition constant Ki of 6560 nM. Further, in test [2], the IC50 was 830 nM and the Ki turned out to be 274 nM.

`COc1cccc(CN(CC(=O)NO)Cc2cccc(OC)c2)c1` [Example 5, 2-[bis[(3-Methoxyphenyl)methyl]amino]-ethanehydroxamic acid]: in test [1], the IC50 is 25600 nM and the Ki was found to be 15700 nM.

With `COc1ccc(CN(CC(=O)NO)Cc2cccc(C(=O)O)c2)cc1` [Example 6, 3-[[[2-(Hydroxyamino)-2-oxo-ethyl]-[(4-methoxyphenyl)methyl]amino]-methyl]benzoic acid], the figures for the Ki in test [1] and in test [2] were 39 nM and 1210 nM, respectively.

`O=C(CN(Cc1ccc(C(=O)O)cc1)Cc1cccc(C(=O)O)c1)NO` [Example 7, 3-[[(4-Carboxyphenyl)methyl-[2-(hydroxyamino)-2-oxo-ethyl]amino]methyl]benzoic acid] registered an inhibition constant Ki in test [1] of 101 nM. Moreover, the results for the IC50 in test [1] (setting [3]) and in test [2] were 206 nM and 44400 nM, respectively.

For the molecule `O=C(CN(Cc1ccc(-c2ccccc2)cc1)Cc1cccc(C(=O)O)c1)NO` [Example 8, 3-[[[2-(Hydroxyamino)-2-oxo-ethyl]-[(4-biphenyl)methyl]amino]-methyl]benzoic acid], in test [1], the IC50 stood at 1440 nM and the affinity corresponds to a Ki of 1030 nM.

As to `CCCOc1ccc(CN(CC(=O)NO)Cc2cccc(C(=O)O)c2)cc1` [Example 9, 3-[[[2-(Hydroxyamino)-2-oxo-ethyl]-[(4-propoxyphenyl)methyl]amino]-methyl]benzoic acid], in test [1], the 50% inhibitory concentration (IC50) stood at 2250 nM and the Ki is 874 nM.

With `COc1ccc(CN(CC(=O)NO)Cc2cccc(C(=O)O)c2)cc1F` [Example 10, 3-[[(3-Fluoro-4-methoxy-phenyl)methyl-[2-(hydroxyamino)-2-oxo-ethyl]amino]methyl]benzoic acid], in test [1], 352 nM corresponded to half-maximal inhibition (IC50) and affinity was put at a Ki of 157 nM. In test [2], the 50% inhibitory concentration (IC50) is 3740 nM and the Ki came to 1090 nM.

With `COc1cc(F)c(CN(CC(=O)NO)Cc2cccc(C(=O)O)c2)c(F)c1` [Example 11, 3-[[(2,6-Difluoro-4-methoxy-phenyl)methyl-[2-(hydroxyamino)-2-oxo-ethyl]amino]methyl]benzoic acid], the IC50 in test [1] came out at 355 nM; in test [2], 2120 nM. Also, the Ki in test [1] worked out at 154 nM; in test [2], 1260 nM.

For the molecule `COc1cccc(CN(CC(=O)NO)Cc2cccc(C(=O)O)c2)c1` [Example 14, 3-[[[2-(Hydroxyamino)-2-oxo-ethyl]-[(3-methoxyphenyl)methyl]amino]-methyl]benzoic acid], in test [1], affinity was put at a Ki of 288 nM. Further, in test [1] (setting [3]), the IC50 stood at 559 nM.

In the case of `COc1ccc(CN(CC(=O)NO)Cc2ccc(OC)cc2)cc1` [Example 15, 2-[bis[(4-Methoxyphenyl)methyl]amino]ethane-hydroxamic acid], the half-inhibitory concentration (IC50) in test [1] came out at 31800 nM.

`COc1ccc(CN(CC(=O)NO)Cc2ccccc2C(=O)O)cc1` [Example 16, 2-[[[2-(Hydroxyamino)-2-oxo-ethyl]-[(4-methoxyphenyl)methyl]amino]-methyl]benzoic acid]: half-maximal inhibition in test [1] (IC50) required 22800 nM.

Turning to `O=C(CN(Cc1ccccc1)Cc1cccc(C(=O)O)c1)NO` [Example 17], the affinity in test [1] corresponds to a Ki of 797 nM.

As to `Cc1ccc(CN(CC(=O)NO)Cc2cccc(C(=O)O)c2)cc1` [Example 18, 3-[[[2-(Hydroxyamino)-2-oxo-ethyl]-(p-tolyl-methyl)amino]methyl]benzoic acid], in test [1], the IC50 was 361 nM and the Ki was 170 nM. In test [2], the 50% inhibitory concentration (IC50) came out at 4670 nM and the inhibition constant (Ki) is 1990 nM.

Consider `N#Cc1ccc(CN(CC(=O)NO)Cc2cccc(C(=O)O)c2)cc1` [Example 19, 3-[[(4-Cyanophenyl)methyl-[2-(hydroxyamino)-2-oxo-ethyl]amino]methyl]benzoic acid], for which the inhibition constant Ki in test [1] amounted to 125 nM; in test [2], 1950 nM. For the same molecule, the figures for the concentration for half-maximal inhibition (IC50) in test [1] (setting [3]) and in test [2] were 320 nM and 4880 nM, respectively.

As to `N#Cc1ccc(CN(CC(=O)NO)Cc2ccc(C#N)cc2)cc1` [Example 55, 2-[bis[(4-cyanophenyl)methyl]amino]-ethanehydroxamic acid], in test [2], the concentration for half-maximal inhibition (IC50) is 5660 nM and the inhibitory constant (Ki) stood at 1600 nM.

As to `COc1c(Cl)ccc(CN(CC(=O)NO)Cc2ccc(Cl)c(OC)c2F)c1F` [Example 56, 2-[bis[(4-chloro-2-fluoro-3-methoxy-phenyl)-methyl]amino]ethanehydroxamic acid], in test [2], the IC50 is 4980 nM and the Ki stood at 1010 nM.

Turning to `N#Cc1ccc(CN(CCC(=O)NO)Cc2ccc(C#N)cc2)cc1` [Example 57, 3-[bis[(4-cyanophenyl)methyl]amino]-propanehydroxamic acid], the Ki in test [2] is 1200 nM.

Take `O=C(CCN(Cc1ccc(Cl)cc1F)Cc1ccc(Cl)cc1F)NO` [Example 62, 3-[bis[(4-chloro-2-fluoro-phenyl)methyl]-amino]propanehydroxamic acid]: in test [2], the Ki was 169 nM.

For the molecule `COc1c(Cl)ccc(CN(CCC(=O)NO)Cc2ccc(Cl)c(OC)c2F)c1F` [Example 65, 3-[bis[(4-chloro-2-fluoro-3-methoxy-phenyl)-methyl]amino]propanehydroxamic acid], in test [2], the Ki amounted to 157 nM.

Turning to `O=C(CN(Cc1ccccc1)Cc1ccccc1)NO` [Example 67, 2-(dibenzylamino) ethanehydroxamic acid], in test [2], the IC50 came to 7880 nM and the inhibition constant (Ki) worked out at 3090 nM.
